Data published in ChEMBL document CHEMBL1136555, “Antitumour benzothiazoles. Part 20: 3'-cyano and 3'-alkynyl-substituted 2-(4'-aminophenyl)benzothiazoles as new potent and selective analogues” (Bioorg Med Chem Lett, 2003).
Each block holds one compound with its values, some of them ahead of it.

Assays:
[1] = system: MDA-MB-468; assay: (§1) Inhibitory activity of compound against breast cancer cell line MDA 468, following 72 hr treatment; format: functional; conditions: Homo sapiens, MDA-MB-468, 72 h
[2] = system: MCF7; assay: (§2) Inhibitory activity of compound against breast cancer cell line MCF-7, following 72 hr treatment; format: functional; conditions: Homo sapiens, MCF7, 72 h
[3] = system: UO-31; assay: Compound tested for growth inhibition of renal cancer cell line UO-31; format: functional; conditions: Homo sapiens
[4] = system: SK-MEL-2; assay: Compound tested for growth inhibition of melanoma cell line SK-MEL-2; format: functional; conditions: Homo sapiens
[5] = system: MDA-MB-231; assay: Compound tested for growth inhibition of breast cancer cell line MDA-MB-231/ATCC; format: functional; conditions: Homo sapiens
[6] = system: RPMI-8226; assay: Compound tested for growth inhibition of leukemia cell line RPMI-8226; format: functional; conditions: Homo sapiens
[7] = system: PC-3; assay: Compound tested for growth inhibition of prostate cancer cell line PC-3; format: functional; conditions: Homo sapiens
[8] = system: MOLT-4; assay: Compound tested for growth inhibition of leukemia cell line MOLT-4; format: functional; conditions: Homo sapiens
[9] = system: SK-MEL-5; assay: Compound tested for growth inhibition of melanoma cell line SK-MEL-5; format: functional; conditions: Homo sapiens
[10] = system: KM12; assay: Compound tested for growth inhibition of colon cancer cell line KM12; format: functional; conditions: Homo sapiens
[11] = system: HOP-62; assay: Compound tested for growth inhibition of non-small cell lung cancer cell line HOP-62; format: functional; conditions: Homo sapiens
[12] = system: A549; assay: Compound tested for growth inhibition of non-small cell lung cancer cell line A549/ATCC; format: functional; conditions: Homo sapiens
[13] = system: DU-145; assay: Compound tested for growth inhibition of prostate cancer cell line DU-145; format: functional; conditions: Homo sapiens
[14] = system: NCI-H23; assay: Compound tested for growth inhibition of non-small cell lung cancer cell line NCI-H23; format: functional; conditions: Homo sapiens
[15] = system: OVCAR-4; assay: Compound tested for growth inhibition of ovarian cancer cell line OVCAR-4; format: functional; conditions: Homo sapiens
[16] = system: SF-539; assay: Compound tested for growth inhibition of CNS cancer cell line SF-539; format: functional; conditions: Homo sapiens
[17] = system: NCI-H322M; assay: Compound tested for growth inhibition of non-small cell lung cancer cell line NCI-H322M; format: functional; conditions: Homo sapiens
[18] = system: HT-29; assay: Compound tested for growth inhibition of colon cancer cell line HT-29; format: functional; conditions: Homo sapiens
[19] = system: T47D; assay: Compound tested for growth inhibition of breast cancer cell line T-47-D; format: functional; conditions: Homo sapiens
[20] = system: SK-MEL-28; assay: Compound tested for growth inhibition of melanoma cell line SK-MEL-28; format: functional; conditions: Homo sapiens
[21] = system: NCI-H460; assay: Compound tested for growth inhibition of non-small cell lung cancer cell line NCI-H460; format: functional; conditions: Homo sapiens
[22] = system: Hs-578T; assay: Compound tested for growth inhibition of breast cancer cell line HS 578T; format: functional; conditions: Homo sapiens
[23] = system: Malme-3M; assay: Compound tested for growth inhibition of melanoma cell line MALME-3M; format: functional; conditions: Homo sapiens
[24] = system: OVCAR-5; assay: Compound tested for growth inhibition of ovarian cancer cell line OVCAR-5; format: functional; conditions: Homo sapiens
[25] = system: U-251; assay: Compound tested for growth inhibition of CNS cancer cell line U251; format: functional; conditions: Homo sapiens
[26] = system: 786-0; assay: Compound tested for growth inhibition of renal cancer cell line 786-0; format: functional; conditions: Homo sapiens
[27] = system: SF-295; assay: Compound tested for growth inhibition of CNS cancer cell line SF-295; format: functional; conditions: Homo sapiens
[28] = system: RXF 393; assay: Compound tested for growth inhibition of renal cancer cell line RFX 393; format: functional; conditions: Homo sapiens
[29] = system: BT-549; assay: Compound tested for growth inhibition of breast cancer cell line BT-549; format: functional; conditions: Homo sapiens
[30] = system: M14; assay: Compound tested for growth inhibition of melanoma cell line M14; format: functional; conditions: Homo sapiens
[31] = system: HCT-15; assay: Compound tested for growth inhibition of colon cancer cell line HCT-15; format: functional; conditions: Homo sapiens
[32] = system: UACC-257; assay: Compound tested for growth inhibition of melanoma cell line UACC-257; format: functional; conditions: Homo sapiens
[33] = system: LOX IMVI; assay: Compound tested for growth inhibition of melanoma cell line LOX IMVI; format: functional; conditions: Homo sapiens
[34] = system: HCC 2998; assay: Compound tested for growth inhibition of colon cancer cell line HCC2998; format: functional; conditions: Homo sapiens
[35] = system: UACC-62; assay: Compound tested for growth inhibition of melanoma cell line UACC-62; format: functional; conditions: Homo sapiens
[36] = system: TK-10; assay: Compound tested for growth inhibition of renal cancer cell line TK-10; format: functional; conditions: Homo sapiens
[37] = system: NCI-H226; assay: Compound tested for growth inhibition of non-small cell lung cancer cell line NCI-H226; format: functional; conditions: Homo sapiens
[38] = system: SN12C; assay: Compound tested for growth inhibition of renal cancer cell line SN12C; format: functional; conditions: Homo sapiens
[39] = system: SW-620; assay: Compound tested for growth inhibition of colon cancer cell line SW-620; format: functional; conditions: Homo sapiens
[40] = system: MCF7; assay: Compound tested for growth inhibition of breast cancer cell line MCF-7; format: functional; conditions: Homo sapiens
[41] = system: A498; assay: Compound tested for growth inhibition of renal cancer cell line A498; format: functional; conditions: Homo sapiens
[42] = system: CAKI-1; assay: Compound tested for growth inhibition of renal cancer cell line CAKI-1; format: functional; conditions: Homo sapiens
[43] = system: SNB-75; assay: Compound tested for growth inhibition of CNS cancer cell line SNB-75; format: functional; conditions: Homo sapiens
[44] = system: OVCAR-8; assay: Compound tested for growth inhibition of ovarian cancer cell line OVCAR-8; format: functional; conditions: Homo sapiens
[45] = system: ACHN; assay: Compound tested for growth inhibition of renal cancer cell line ACHN; format: functional; conditions: Homo sapiens
[46] = system: OVCAR-3; assay: Compound tested for growth inhibition of ovarian cancer cell line OVCAR-3; format: functional; conditions: Homo sapiens
[47] = system: NCI-H522; assay: Compound tested for growth inhibition of non-small cell lung cancer cell line NCI-H522; format: functional; conditions: Homo sapiens
[48] = system: HOP-92; assay: Compound tested for growth inhibition of non-small cell lung cancer cell line HOP-92; format: functional; conditions: Homo sapiens
[49] = system: SK-OV-3; assay: Compound tested for growth inhibition of ovarian cancer cell line SK-OV-3; format: functional; conditions: Homo sapiens
[50] = system: HCT-116; assay: Compound tested for growth inhibition of colon cancer cell line HCT116; format: functional; conditions: Homo sapiens
[51] = system: SF-268; assay: Compound tested for growth inhibition of CNS cancer cell line SF-268; format: functional; conditions: Homo sapiens
[52] = system: MDA-N; assay: Compound tested for growth inhibition of breast cancer cell line MDA-N; format: functional; conditions: Homo sapiens
[53] = system: SNB-19; assay: Compound tested for growth inhibition of CNS cancer cell line SNB-19; format: functional; conditions: Homo sapiens
[54] = system: NCI/ADR-RES; assay: Compound tested for growth inhibition of breast cancer cell line NCI/ADR-RES; format: functional; conditions: Homo sapiens
[55] = system: K562; assay: Compound tested for growth inhibition of leukemia cell line K-562; format: functional; conditions: Homo sapiens
[56] = system: IGROV-1; assay: Compound tested for growth inhibition of ovarian cancer cell line […]; format: functional; conditions: Homo sapiens
[57] = system: MDA-MB-435; assay: Compound tested for growth inhibition of breast cancer cell line MDA-MB-435; format: functional; conditions: Homo sapiens
[58] = system: MDA-MB-468; assay: as §1; format: functional, cell-based; conditions: Homo sapiens, MDA-MB-468, 72 h
[59] = system: MCF7; assay: as §2; format: functional, cell-based; conditions: Homo sapiens, MCF7, 72 h

- GI50 [1]: 230 nM
- GI50 [2]: 520 nM
Compound: C[Si](C)(C)C#Cc1cc(-c2nc3c(F)cccc3s2)ccc1N

- GI50 [1]: 23 nM
- GI50 [2]: 110 nM
Compound: C#Cc1cc(-c2nc3ccc(F)cc3s2)ccc1N

- GI50 [1]: 340 nM
- GI50 [2]: 580 nM
Compound: N#Cc1cc(-c2nc3ccccc3s2)ccc1N

- GI50 [1]: 560 nM
- GI50 [2]: 710 nM
Compound: C[Si](C)(C)C#Cc1cc(-c2nc3ccccc3s2)ccc1N

- IC50 [58]: < 1 nM
- IC50 [59]: < 1 nM
Compound: Nc1ccc(-c2nc3ccccc3s2)cc1

- GI50 [1]: 6.8 nM
- GI50 [2]: 11 nM
Compound: C#Cc1cc(-c2nc3cc(F)ccc3s2)ccc1N

The next lines start with the compound.

Compound: C#Cc1cc(-c2nc3c(F)cccc3s2)ccc1N
- GI50 [1]: 30 nM
- GI50 [2]: 110 nM

Compound: N#Cc1cc(-c2nc3cc(F)ccc3s2)ccc1N
- GI50 [3]: 49000 nM
- GI50 [4]: 13500 nM
- GI50 [5]: 7410 nM
- GI50 [6]: > 100000 nM
- GI50 [7]: 24000 nM
- GI50 [8]: > 100000 nM
- GI50 [1]: 7.8 nM
- GI50 [9]: 537 nM
- GI50 [10]: 97.7 nM
- GI50 [11]: 17000 nM
- GI50 [12]: 214 nM
- GI50 [13]: 51300 nM
- GI50 [14]: < 10 nM
- GI50 [15]: 1380 nM
- GI50 [16]: 8710 nM
- GI50 [17]: 11.5 nM
- GI50 [18]: 1620 nM
- GI50 [19]: 14.4 nM
- GI50 [20]: > 100000 nM
- GI50 [21]: < 10 nM
- GI50 [22]: 8510 nM
- GI50 [23]: > 100000 nM
- GI50 [24]: 37.1 nM
- GI50 [25]: 8710 nM
- GI50 [26]: 31600 nM
- GI50 [27]: 16600 nM
- GI50 [28]: 2400 nM
- GI50 [29]: 3800 nM
- GI50 [30]: 25700 nM
- GI50 [31]: 389 nM
- GI50 [32]: > 100000 nM
- GI50 [33]: > 100000 nM
- GI50 [34]: < 10 nM
- GI50 [35]: 6610 nM
- GI50 [36]: 30.2 nM
- GI50 [37]: 14500 nM
- GI50 [38]: > 100000 nM
- GI50 [39]: > 100000 nM
- GI50 [40]: < 10 nM
- GI50 [41]: 8510 nM
- GI50 [42]: > 100000 nM
- GI50 [43]: 832 nM
- GI50 [44]: > 100000 nM
- GI50 [45]: 759 nM
- GI50 [46]: 28200 nM
- GI50 [2]: 5.7 nM
- GI50 [47]: 28200 nM
- GI50 [48]: 2630 nM
- GI50 [49]: 20900 nM
- GI50 [50]: 15800 nM
- GI50 [51]: 12000 nM
- GI50 [52]: > 100000 nM
- GI50 [53]: 9120 nM
- GI50 [54]: > 100000 nM
- GI50 [55]: > 100000 nM
- GI50 [56]: < 10 nM
- GI50 [57]: > 100000 nM

Compound: C[Si](C)(C)C#Cc1cc(-c2nc3cc(F)ccc3s2)ccc1N
- GI50 [1]: 210 nM
- GI50 [2]: 160 nM

Compound: C[Si](C)(C)C#Cc1cc(-c2nc3ccc(F)cc3s2)ccc1N
- GI50 [1]: 400 nM
- GI50 [2]: 680 nM

Compound: N#Cc1cc(-c2nc3ccc(F)cc3s2)ccc1N
- GI50 [1]: 320 nM
- GI50 [2]: 820 nM

Compound: C#Cc1cc(-c2nc3ccccc3s2)ccc1N
- GI50 [1]: 15 nM
- GI50 [2]: 49 nM

Compound: N#Cc1cc(-c2nc3c(F)cccc3s2)ccc1N
- GI50 [1]: 80 nM
- GI50 [2]: 180 nM
